Assay results reported in patent publication US20240300941A1, “HPK1 INHIBITORS, PREPARATION METHOD AND APPLICATION THEREOF” (ZHUHAI YUFAN BIOTECHNOLOGIES CO., LTD., priority 2018, published 2024).

What was measured:
[1] = tested on: pSLP-76(Ser376) in Jurkat E6-1 cells; assay: Jurkat E6-1 pSLP-76(Ser376) HTRF experiment; type: cell-based; conditions: 4 hours compound incubation, anti-human CD3 antibody 20 minutes, Phospho-SLP-76 / SLP-76 HTRF
Method: Jurkat E6-1 cells were purchased from ATCC (Cat. No. TIB-152TM) and cultured overnight with RPMI 1640 containing 0.5% o FBS, after that 20 μL (10^7 cells/mL) cells were added to the experimental plates. Then the test compounds were diluted by three-fold gradient, and 10 different concentrations were prepared, and 5 μl of each was added to the experimental plate, and incubated for 4 hours in 37° C. incubator containing 5% CO2. Then 5 ul of 6× anti-human CD3 antibody (Biolegend, Cat. No. 300432) was added and incubated for 20 minutes in 37° C. incubator containing 5% CO2. Finally, the Phospho-SLP-76 and SLP-76 results were determined using the Cisbio Phospho-SLP-76 and SLP-76 HTRF assay kits (items: 63ADK076PEH and 63ADK077PEH, respectively). Based on the results, the IC50 of the compound is calculated.

HPK1 = HPK1 (Homo sapiens (Human), UniProt Q92918); assay: HPK1 ADP-Glo enzyme assay; type: biochemical; conditions: HPK1 protein 5 nM, MBP and ATP substrate, ADP-Glo readout
HPK1, sequence (Q92918 whole entry): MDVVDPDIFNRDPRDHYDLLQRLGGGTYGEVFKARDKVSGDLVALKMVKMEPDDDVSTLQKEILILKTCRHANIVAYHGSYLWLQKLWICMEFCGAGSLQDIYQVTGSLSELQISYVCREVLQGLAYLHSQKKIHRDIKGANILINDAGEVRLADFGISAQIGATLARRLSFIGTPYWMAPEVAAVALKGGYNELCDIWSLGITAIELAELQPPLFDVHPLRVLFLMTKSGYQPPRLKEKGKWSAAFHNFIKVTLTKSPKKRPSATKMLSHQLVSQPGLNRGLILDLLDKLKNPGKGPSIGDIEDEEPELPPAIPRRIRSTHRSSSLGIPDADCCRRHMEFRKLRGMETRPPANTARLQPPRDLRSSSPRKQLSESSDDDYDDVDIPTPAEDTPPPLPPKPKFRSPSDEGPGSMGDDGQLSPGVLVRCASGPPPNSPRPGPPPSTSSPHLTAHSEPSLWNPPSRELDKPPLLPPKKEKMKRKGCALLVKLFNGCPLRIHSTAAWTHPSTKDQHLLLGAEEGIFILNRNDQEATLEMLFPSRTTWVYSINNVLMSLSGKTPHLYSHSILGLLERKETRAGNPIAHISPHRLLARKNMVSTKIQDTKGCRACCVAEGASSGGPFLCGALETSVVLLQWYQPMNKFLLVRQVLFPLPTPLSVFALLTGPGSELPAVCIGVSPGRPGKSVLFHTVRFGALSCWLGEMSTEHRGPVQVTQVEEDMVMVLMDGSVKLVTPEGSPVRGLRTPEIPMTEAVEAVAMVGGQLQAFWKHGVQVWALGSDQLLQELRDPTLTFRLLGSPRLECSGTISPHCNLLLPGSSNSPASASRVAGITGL
Method: The buffer used in the enzyme assay contains 5 mM MOPS (pH=7.2), 2.5 mM β-Glycerol Phosphate, 0.4 mM EDTA, 1 mM EGTA, 0.05 mM DTT, 5 mM MgCl2. The compound was dissolved in 100% DMSO at the concentration was 10 mM. The initial concentration of the test was 5 uM, and ten data points were diluted by three-fold gradient, and each point was repeatedly measured twice. The HPK1 protein was purchased from Thermo (Cat. No. PV6355) and diluted to 2× stock solution at the concentration of 10 nM (the final concentration of the enzyme assay was 5 nM). 2.5 µl of 2×HPK1 protein was added to each well of the plate containing the test compound, centrifuged at 1000 rpm for 30 seconds, and then incubated at 25° C. for 15 minutes. MBP protein was purchased from Millipore (Cat. No. 13-110) and ATP was purchased from Sigma (Cat. No. A7699-5G) and the two were formulated into 2× working solutions at concentrations of 4 uM and 80 uM. Added 2.5 μl mixture of 2×MBP and ATP, centrifuged at 1000 rpm for 30 seconds, then incubated at 25° C. for 90 minutes. Then added 5 ul of ADP-Glo™ (Promega, Cat. No. V9102) to the assay plate and incubated […] at 25° C. for 60 minutes. Finally, 10 ul of the kinase assay reagent (Promega, Cat. No. V9102) was added to the assay plate, centrifuged at 1000 rpm for 30 seconds at 25° C. for 60 minutes, and the […] intensity was determined.

| SMILES | IC50 [1] [nM] | IC50 (HPK1) [nM] |
| --- | --- | --- |
| CN1CCC(c2ncc(-c3cnc(N)c(OCc4ccncc4)c3)s2)CC1 [A1] | < 1000 | < 100 |
| CN1CCC(c2ncc(-c3cnc(N)c(OCc4ccccc4)c3)s2)CC1 [A2] | 1000 to 50000 | 100 to 1000 |
| CN1CCC(c2ncc(-c3cnc(N)c(OCc4cccc(C#CC(C)(C)O)c4)c3)s2)CC1 [A3] | < 1000 |  |
| CC(Oc1cc(-c2cnc(C3CCN(C)CC3)s2)cnc1N)c1ccncc1 (centres unmarked) [A4] | 1000 to 50000 | 100 to 1000 |
| CN1CCC(c2ncc(-c3cnc(N)c(OCc4ccc(F)cc4)c3)s2)CC1 [A5] | 1000 to 50000 | 100 to 1000 |
| Nc1ncc(-c2cnc(C3CCNCC3)s2)cc1OCc1ccncc1 [A7] | < 1000 |  |
| CN1CCC(c2ncc(-c3cnc(N)c(OCc4ccnc(Cl)c4)c3)s2)CC1 [A8] | 1000 to 50000 |  |
| CN1CCC(c2ncc(-c3cnc(N)c(OCc4ccnc(C#CC(C)(C)O)c4)c3)s2)CC1 [A10] | < 1000 |  |
| CN1CCC(c2ncc(-c3cnc(N)c(OCc4ccnc(C#N)c4)c3)s2)CC1 [A11] | 1000 to 50000 | 100 to 1000 |
| CN1CCN(c2ncc(-c3cnc(N)c(OCc4ccncc4)c3)s2)CC1 [A12] | < 1000 |  |
| Nc1ncc(-c2cnc(C3CCOCC3)s2)cc1OCc1ccncc1 [A13] | < 1000 |  |
| Cc1nc(C2CCN(C)CC2)sc1-c1cnc(N)c(OCc2ccncc2)n1 [A15] |  | 100 to 1000 |
| CSc1ncc(-c2cnc(N)c(OCc3cccc(C#CC(C)(C)O)c3)c2)s1 [A17] | 1000 to 50000 | < 100 |
| CC(C)(O)C#Cc1cccc(COc2cc(-c3cnc(Oc4ccccc4)s3)cnc2N)c1 [A18] |  | 100 to 1000 |
| CN1CCC(c2ncc(-c3cnc(N)c(OCc4cc(C#CC(C)(C)O)ccc4F)c3)s2)CC1 [A19] | < 1000 | < 100 |
| CCC(C)c1ncc(-c2cnc(N)c(OCc3cccc(C#CC(C)(C)O)c3)c2)s1 (centres unmarked) [A20] | 1000 to 50000 | < 100 |
| CC(C)c1ncc(-c2cnc(N)c(OCc3cc(C#CC(C)(C)O)ccc3F)c2)s1 [A21] | < 1000 | < 100 |
| CC1CN(c2ncc(-c3cnc(N)c(OCc4cccc(C#CC(C)(C)O)c4)c3)s2)CCN1C (centres unmarked) [A22] | < 1000 | < 100 |
| CC(C)(O)C#Cc1cccc(COc2cc(-c3cnc(C4CCOCC4)s3)cnc2N)c1 [A23] | < 1000 | < 100 |
| CN1CCCN(c2ncc(-c3cnc(N)c(OCc4cccc(C#CC(C)(C)O)c4)c3)s2)CC1 [A24] | < 1000 | < 100 |
| CN1CCN(c2ncc(-c3cnc(N)c(OCc4cccc(C#CC(C)(C)O)c4)c3)s2)CC1 [A25] | < 1000 | < 100 |
| CC1CN(c2ncc(-c3cnc(N)c(OCc4cccc(C#CC(C)(C)O)c4)c3)s2)CC(C)N1C (centres unmarked) [A26] | < 1000 | < 100 |
| CC(C)(O)C#Cc1cccc(COc2cc(-c3cnc(C4CCN(CC(F)(F)F)CC4)s3)cnc2N)c1 [A27] | 1000 to 50000 | < 100 |

| SMILES | IC50 [1] [nM] | IC50 (HPK1) [nM] |
| --- | --- | --- |
| CC(C)(O)C#Cc1cccc(COc2cc(-c3cnc(N4CCCCC4)s3)cnc2N)c1 [A29] |  | 100 to 1000 |
| CC(C)(O)C#Cc1cccc(COc2cc(-c3cnc(C4CCCCC4)s3)cnc2N)c1 [A30] |  | 100 to 1000 |
| CC(C)(O)C#Cc1ccc(F)c(COc2cc(-c3cnc(C4CCNCC4)s3)cnc2N)c1 [A31] | < 1000 | < 100 |
| CN1CCC(n2cc(-c3cnc(N)c(OCc4cccc(C#CC(C)(C)O)c4)c3)cn2)CC1 [A32] | < 1000 | < 100 |
| CN1CCC(c2ncc(-c3cnc(N)c(OCc4cccc(C#CC(C)(O)C(F)(F)F)c4)c3)s2)CC1 (centres unmarked) [A33] |  | > 1000 |
| CN1CCC(c2ncc(-c3cnc(N)c(OCc4cccc(C#CC5(O)CCCC5)c4)c3)s2)CC1 [A34] | < 1000 |  |
| Cc1ncc(-c2cnc(N)c(OCc3ccncc3)c2)s1 [A35] | 1000 to 50000 | 100 to 1000 |
| CC(C)c1ncc(-c2cnc(N)c(OCc3ccncc3)c2)s1 [A36] | 1000 to 50000 |  |
| Nc1ncc(-c2cnc(C3CCCCC3)s2)cc1OCc1ccncc1 [A37] | < 1000 |  |
| C#Cc1cc(COc2cc(-c3cnc(C4CCN(C)CC4)s3)cnc2N)ccn1 [A39] | < 1000 | < 100 |
| CN1CCC(c2ncc(-c3cnc(N)c(OCc4cccc(C#CC5(O)CCC5)c4)c3)s2)CC1 [A40] | < 1000 |  |
| CC(C)c1ncc(-c2cnc(N)c(OCc3cccc(C#CC(C)(C)O)c3)c2)s1 [A41] | 1000 to 50000 |  |
| CC(C)(O)C#Cc1cccc(COc2cc(-c3cnc(C4CCNCC4)s3)cnc2N)c1 [A42] | < 1000 |  |
| CN1CCC(c2ccc(-c3cnc(N)c(OCc4ccncc4)c3)nc2)CC1 [A43] | 1000 to 50000 | 100 to 1000 |
| CN1CCC(c2ncc(-c3cnc(N)c(OCc4cncc(C#CC(C)(C)O)c4)c3)s2)CC1 [A44] | 1000 to 50000 | < 100 |
| CC(C)c1ncc(-c2cnc(N)c(OCc3cncc(C#CC(C)(C)O)c3)c2)s1 [A45] | 1000 to 50000 | 100 to 1000 |
| Nc1ncc(-c2cnc(C3CCOCC3)s2)cc1OCc1cc(C#CC2(O)CC2)ccc1F [A46] | < 1000 | < 100 |
| Nc1ncc(-c2cnn(C3CCOCC3)c2)cc1OCc1cccc(C#CC2(O)CC2)c1 [A47] | < 1000 | < 100 |
| CN1CCC(c2ncc(-c3cnc(N)c(OCc4cc(C#CC5(O)CC5)ccc4F)c3)s2)CC1 [A48] | < 1000 | < 100 |
| CC(C)(O)C#Cc1cccc(COc2cc(-c3cnc(C4CCCCN4)s3)cnc2N)c1 (centres unmarked) [A49] | < 1000 | < 100 |
| Nc1ncc(-c2cnc(C3CCOCC3)s2)cc1OCc1cccc(C#CC2(O)CC2)c1 [A50] | < 1000 | < 100 |
| Nc1ncc(-c2cnn(C3CCOCC3)c2)cc1OCc1cc(C#CC2(O)CC2)ccc1F [A51] | < 1000 | < 100 |
| Nc1ncc(-c2cnc(C3CCNCC3)s2)cc1OCc1cccc(C#CC2(O)CC2)c1 [A52] | < 1000 | < 100 |

| SMILES | IC50 [1] [nM] | IC50 (HPK1) [nM] |
| --- | --- | --- |
| Nc1ncc(-c2cnc(C3CCNCC3)s2)cc1OCc1cc(C#CC2(O)CC2)ccc1F [A53] | < 1000 | < 100 |
| Nc1ncc(-c2cnn(C3CCNCC3)c2)cc1OCc1cccc(C#CC2(O)CC2)c1 [A54] | < 1000 | < 100 |
| CN1CCC(c2ncc(-c3cnc(N)c(OCc4cc(C#CC(C)(C)O)ccc4Cl)c3)s2)CC1 [A55] | < 1000 | < 100 |
| CC(C)(O)C#Cc1cccc(COc2cc(-c3cnc(C4CCCNC4)s3)cnc2N)c1 (centres unmarked) [A56] | < 1000 | < 100 |
| CN1CCC(c2ncc(-c3cnc(N)c(OCc4cc(F)cc(C#CC(C)(C)O)c4)c3)s2)CC1 [A57] | < 1000 | < 100 |
| CN1CCC(c2ccnc(-c3cnc(N)c(OCc4cccc(C#CC(C)(C)O)c4)c3)c2)CC1 [A58] |  | 100 to 1000 |
| CN1CCC(c2ncc(-c3cnc(N)c(OCc4cccc(C#CC5(O)CCCCC5=O)c4)c3)s2)CC1 (centres unmarked) [A61] |  | 100 to 1000 |
| CC(C)c1ncc(-c2cnc(N)c(OCc3cc(C#CC(C)(C)O)ccc3CN)c2)s1 [A67] |  | < 100 |
| CN1CCN(C2CCN(c3ncc(-c4cnc(N)c(OCc5cccc(C#CC(C)(C)O)c5)c4)s3)CC2)CC1 [A69] |  | < 100 |
| CC(C)c1ncc(-c2cnc(N)c(OCc3cc(C#CC(C)(C)O)cc(CN)c3)c2)s1 [A70] |  | < 100 |
| CN1CCC(c2ncc(-c3cnc(N)c(OCc4cccc(C#CC(C)(C)O)c4)c3)s2)C1 (centres unmarked) [A72] |  | < 100 |
| CN1CCC(n2cc(-c3cnc(N)c(OCc4cc(C#CC(C)(C)O)ccc4F)c3)cn2)CC1 [A73] |  | < 100 |
| CN1CCC(n2cc(-c3cnc(N)c(OCc4cccc(C#CC(C)(O)CF)c4)c3)cn2)CC1 (centres unmarked) [A74] |  | < 100 |
| CN1CCC(c2ncc(-c3cnc(N)c(OCc4ccc(F)c(C#CC(C)(C)O)c4)c3)s2)CC1 [A75] |  | < 100 |
| CN1CCC(c2ncc(-c3cnc(N)c(OCc4cc(C#CC(C)(C)O)ccc4C(F)(F)F)c3)s2)CC1 [A76] |  | < 100 |
| CC(C)(O)C#Cc1cccc(COc2cc(-c3cnn(C4CCNCC4)c3)cnc2N)c1 [A79] |  | < 100 |
| CC(C)(O)C#Cc1cccc(COc2cc(-c3cnn(C4CCOCC4)c3)cnc2N)c1 [A80] |  | < 100 |
| CC(C)(O)C#Cc1cc(CN)cc(COc2cc(-c3cnc(C4CCOCC4)s3)cnc2N)c1 [A81] |  | < 100 |
| CN1CCC(c2ncc(-c3cnc(N)c(OCc4cc(C#CC(C)(C)O)cc(CN)c4)c3)s2)CC1 [A83] |  | < 100 |
| CC(C)(O)C#Cc1ccc(CN)c(COc2cc(-c3cnc(C4CCOCC4)s3)cnc2N)c1 [A84] |  | < 100 |
| Nc1ncc(-c2cccc(N3CCOCC3=O)c2)cc1OCc1ccncc1 [A85] |  | > 1000 |
